Data from patent US10590393B2, “Retinoic acid enhanced human stem cell derived blood brain barrier model” (Wisconsin Alumni Research Foundation, priority 2012, dated 2020).
Read-outs that look alike come from different tables or passages of the source.

Key:
[1] = test system: iPSC-derived BMECs; experiment: Test of compounds for the ability to mimic the activity of RA (elevated TEER); assay type: cell-based, human; settings: for induction of elevated TEER: ability to mimic the activity of RA
Description: Further, Applicants tested a list of compounds for the ability to mimic the activity of RA.
A typical retinoic acid-enhanced blood brain barrier is created as described below and in the figures. Retinoic acid suitable for the present invention may be obtained from commercial sources such as Sigma-Aldrich. […] Both types of RA are suitable for the present invention.

[2] = test system: hCMEC/D3 immortalized human BMEC line; settings: cited from earlier work
[3] = test system: IMR90-4-derived BMECs; experiment: in vitro; settings: for permeability: human, 1 h
Protocol: (§1) To determine Pe values for radiolabeled compounds, each compound was diluted to 0.4 μCi in transport buffer (distilled water with 0.12 M NaCl, 25 mM NaHCO3, 3 mM KCl, 2 mM MgSO4, 2 mM CaCl2, 0.4 mM K2HPO4, 1 mM HEPES, and 0.1% bovine serum albumin [BSA; Sigma]). 200 μL aliquots were extracted from the basolateral chamber every 15 min and replaced by fresh transport buffer. […] [^3H]-vincristine was purchased from American Radiolabeled Chemicals (St. Louis, Mo., USA), while all other radiolabeled compounds were acquired from PerkinElmer (Waltham, Mass., USA). All compound incubations were conducted at 37° C. and carried out on a rotator. Triplicate filters were used for all permeability studies.

[4] = in vitro; settings: human, permeability
Protocol: as §1

[5] = RA treatment and optimized neural cell co-culture

Row | Compound | induction of elevated TEER [1] | other results
1 | O=C(O)CCc1cc(I)c(O)c(I)c1 [3,5-diiodo-4-hydroxyphenylpropionic acid] | not to induce elevated TEER | –
2 | N[C@@H](Cc1cc(I)c(Oc2ccc(O)cc2)c(I)c1)C(=O)O [3,5-diiodo-L-thyronine] | not to induce elevated TEER | –
3 | CCCCCC#CCC#CCC#CCC#CCCCC(=O)O [5,8,11,14-eicosatetraynoic acid] | not to induce elevated TEER | –
4 | O=Cc1c2[nH]c3ccccc3c2cc2[nH]c3ccccc3c12 [6-formylindolo[3,2-B]carbazole] | not to induce elevated TEER | –
5 | CC1=C(/C=C/C(C)=C\C=C\C(C)=C\C(=O)O)C(C)(C)CCC1 [9-cis RA] | – | enhancement by RA isoform ([1]; two isoforms of RA tested): producing the desired enhancement
6 | C=C1CC[C@H](O)C/C1=C/C=C1\CCC[C@]2(C)[C@@H]([C@H](C)CCCC(C)(C)O)CC[C@@H]12 [25-hydroxyvitamin D3] | not to induce elevated TEER | –
7 | CC1(C)CC=C(c2ccccc2)c2cc(/C=C/c3ccc(C(=O)O)cc3)ccc21 [BMS 453] | not to induce elevated TEER | –
8 | CC1(C)C(=O)C(C)(C)c2cc(C(=O)Nc3ccc(C(=O)O)cc3)ccc21 [BMS 753] | induce elevated TEER | –
9 | Clc1ccc(-c2nc3sccn3c2/C=N/OCc2ccc(Cl)c(Cl)c2)cc1 [CITCO] | not to induce elevated TEER | –
10 | COc1cc2c(c(OC)c1OC)-c1ccc(OC)c(=O)cc1[C@@H](NC(C)=O)CC2 [Colchicine, colchicine] | – | permeability ([2]; hCMEC/D3, colchicine and vincristine estimated from graphical data): approximately 1.6×10^−3 cm/min; Average Pe [3, 5]: 0.015 ± 0.007 10^−3 cm/min; Average Pe ([3]; RA treatment only): 0.023 ± 0.0096 10^−3 cm/min; Papp A→B at 1 h ([4]; RA-treated cells without co-culture): 0.383 ×10⁻⁶ cm/s; Papp A→B at 1 h ([4]; optimized co-culture conditions (pericyte/hNPC), RA-treated): 0.25 ×10⁻⁶ cm/s
11 | COc1cc2nc(N3CCN(C(=O)c4ccco4)CC3)nc(N)c2cc1OC [Prazosin, prazosin] | – | Average Pe [3, 5]: 0.11 ± 0.006 10^−3 cm/min; Average Pe ([3]; RA treatment only): 0.2 ± 0.05 10^−3 cm/min; permeability [3]: 2±0.5×10^−4 cm/min; Papp A→B at 1 h [4]: 1.83 ×10⁻⁶ cm/s
12 | CC[C@]1(O)C[C@H]2CN(CCc3c([nH]c4ccccc34)[C@@](C(=O)OC)(c3cc4c(cc3OC)N(C=O)[C@H]3[C@@](O)(C(=O)OC)[C@H](OC(C)=O)[C@]5(CC)C=CCN6CC[C@]43[C@@H]65)C2)C1 [Vincristine, vincristine] | – | permeability [2]: approximately 0.75×10^−3 cm/min; permeability [3]: 3.5±0.9×10^−5 cm/min; Papp A→B at 1 h [4]: 0.433 ×10⁻⁶ cm/s
13 | Cc1cccc(Nc2cc(Cl)nc(SCC(=O)O)n2)c1C [WY-14643] | not to induce elevated TEER | –
14 | CCCCC[C@H](O)/C=C/[C@@H]1[C@H]2C/C(=C/CCCC(=O)O)C[C@H]2C[C@H]1O [carbacyclin] | induce elevated TEER | –
15 | C[C@H](CCC(=O)O)[C@H]1CC[C@H]2[C@@H]3[C@H](O)C[C@@H]4C[C@H](O)CC[C@]4(C)[C@H]3C[C@H](O)[C@]12C [cholic acid] | not to induce elevated TEER | –
16 | CC/C=C\C/C=C\C/C=C\C/C=C\C/C=C\C/C=C\CCC(=O)O [docosa-4Z,7Z,10Z,13Z,16Z,19Z-hexaenoic acid] | not to induce elevated TEER | –
17 | CC(=O)[C@H]1[C@H](C#N)C[C@H]2[C@@H]3CC=C4C[C@@H](O)CC[C@]4(C)[C@H]3CC[C@@]21C [pregnenolone-16α-carbonitrile] | not to induce elevated TEER | –
18 | CD 3254 | induce elevated TEER | –
